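1) Cells in 96-well plates. 2) Compound, 48 h, 5 concentrations. 3) Linear interpolation between surrounding doses. 4) Unreached endpoint = highest concentration. Here, GI50 denotes the concentration required for 50% inhibition of growth.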 The source made the active and inactive calls. No stated cut-off is given here; in the data, active = GI50 up to about 1.1 µM and inactive = higher.
Tests used:
Assay in all cases: NCI tumour cell line growth inhibition, 48 h
MDA-MB-231 = test system: MDA-MB-231
PC-3 = test system: PC-3
NCI-H23 = test system: NCI-H23
NCI/ADR-RES = test system: NCI/ADR-RES
U-251 = test system: U-251
SNB-19 = test system: SNB-19
MDA-N = test system: MDA-N
LOX IMVI = test system: LOX IMVI
SW-620 = test system: SW-620
Malme-3M = test system: Malme-3M
CCRF-CEM = test system: CCRF-CEM
UACC-257 = test system: UACC-257
T47D = test system: T47D
NCI-H460 = test system: NCI-H460
NCI-H226 = test system: NCI-H226

Row | Compound | GI50 (MDA-MB-231) | GI50 (PC-3) | GI50 (NCI-H23) | GI50 (NCI/ADR-RES) | GI50 (U-251) | GI50 (SNB-19) | GI50 (MDA-N) | GI50 (LOX IMVI) | GI50 (SW-620) | GI50 (Malme-3M) | GI50 (CCRF-CEM) | GI50 (UACC-257) | GI50 (T47D) | GI50 (NCI-H460) | GI50 (NCI-H226)
1 | C[C@]12CCC(=O)C=C1CC[C@@H]1[C@@H]2[C@@H](O)C[C@@]2(C)[C@H]1CC[C@]2(O)C(=O)COC(=O)C1CCCC1 | > 100 µM (inactive) | > 100 µM (inactive) | > 100 µM (inactive) | > 100 µM (inactive) | > 100 µM (inactive) | > 100 µM (inactive) | > 100 µM (inactive) | > 100 µM (inactive) | > 100 µM (inactive) | > 100 µM (inactive) | 7.73 µM (inactive) | > 100 µM (inactive) | > 100 µM (inactive) | 87.3 µM (inactive) | > 100 µM (inactive)
2 | Nc1nc(Cl)cc(NCC2(CO)CC(c3ccccc3)C2)n1 (centres undefined) | 26.4 µM (inactive) | 18 µM (inactive) | 3.57 µM (inactive) | 13.8 µM (inactive) | 50.7 µM (inactive) | 88.7 µM (inactive) | 31 µM (inactive) | 7.16 µM (inactive) | > 100 µM (inactive) | 46.5 µM (inactive) | 27 µM (inactive) | 20.5 µM (inactive) | 11.4 µM (inactive) | 43.4 µM (inactive) | 37.7 µM (inactive)
3 | CN(C)CN1C(=O)/C(=N\n2c(S)nnc2-c2ccncc2)c2ccccc21 | > 100 µM (inactive) | 35.6 µM (inactive) | 37.8 µM (inactive) | 41.9 µM (inactive) | 38.8 µM (inactive) | 54.5 µM (inactive) | 16.7 µM (inactive) | 22.9 µM (inactive) | 18.8 µM (inactive) | > 100 µM (inactive) | 9.38 µM (inactive) | 15.5 µM (inactive) | 30.8 µM (inactive) | 38.3 µM (inactive) | > 100 µM (inactive)
4 | O=C1c2ccccc2C(=O)c2c1sc1nc3ccccc3n21 | 2.02 µM (inactive) | 2.64 µM (inactive) | 1.29 µM (inactive) | 1.77 µM (inactive) | 3.52 µM (inactive) | 2.11 µM (inactive) | 1.79 µM (inactive) | 0.893 µM (active) | – | 0.439 µM (active) | 1.94 µM (inactive) | 1.88 µM (inactive) | 1.83 µM (inactive) | 1.79 µM (inactive) | 5.68 µM (inactive)
5 | O=c1ccn(C2OC(COC3CCCCO3)C(OC3CCCCO3)C2OC2CCCCO2)c(=O)n1-c1ccccc1 (centres undefined) | > 100 µM (inactive) | > 100 µM (inactive) | > 100 µM (inactive) | > 100 µM (inactive) | > 100 µM (inactive) | > 100 µM (inactive) | > 100 µM (inactive) | > 100 µM (inactive) | > 100 µM (inactive) | > 100 µM (inactive) | > 100 µM (inactive) | > 100 µM (inactive) | > 100 µM (inactive) | > 100 µM (inactive) | > 100 µM (inactive)
6 | COc1cccc(C(=O)C#Cc2cnc(OC)nc2OC)c1 | 3.41 µM (inactive) | 1.37 µM (inactive) | 1.98 µM (inactive) | 1.85 µM (inactive) | 2.84 µM (inactive) | 15.8 µM (inactive) | 1.49 µM (inactive) | 0.119 µM (active) | 0.504 µM (active) | 1.38 µM (inactive) | 0.0286 µM (active) | 2.15 µM (inactive) | 1.83 µM (inactive) | 9.08 µM (inactive) | 1.11 µM (active)
7 | CCCCNC(=O)OCCN=C1c2ccccc2C(Br)C(Br)c2ccccc21 (centres undefined) | 29.4 µM (inactive) | 36.9 µM (inactive) | 26.3 µM (inactive) | 19.9 µM (inactive) | 23.2 µM (inactive) | 24.9 µM (inactive) | 15.2 µM (inactive) | 20 µM (inactive) | 40.2 µM (inactive) | 23.3 µM (inactive) | 10.1 µM (inactive) | 26.8 µM (inactive) | 33.8 µM (inactive) | 54.6 µM (inactive) | 76.9 µM (inactive)
8 | O=C(CCC(=O)OCC1OC(O)(CC2OC(CO)C(O)C(O)C2O)C(O)C1O)OCc1ccccc1 (centres undefined) | > 100 µM (inactive) | > 100 µM (inactive) | > 100 µM (inactive) | > 100 µM (inactive) | > 100 µM (inactive) | > 100 µM (inactive) | > 100 µM (inactive) | > 100 µM (inactive) | > 100 µM (inactive) | > 100 µM (inactive) | 67.1 µM (inactive) | > 100 µM (inactive) | > 100 µM (inactive) | > 100 µM (inactive) | > 100 µM (inactive)
9 | COC(=O)C1(OC(=O)Sc2ccccc2)CCN(C)CC1 | 16.9 µM (inactive) | 7.57 µM (inactive) | 14.1 µM (inactive) | 13.1 µM (inactive) | 12.1 µM (inactive) | 28.3 µM (inactive) | 17.8 µM (inactive) | 8.07 µM (inactive) | 21.7 µM (inactive) | 63.7 µM (inactive) | 1.84 µM (inactive) | 20.2 µM (inactive) | 31.3 µM (inactive) | 23.6 µM (inactive) | 13.6 µM (inactive)

Reference: ChEMBL document CHEMBL1201862, “PubChem BioAssay data set” (2004)
